# Experimental data: ChEMBL document CHEMBL1146671, “Non-peptide alpha v beta 3 antagonists. Part 7: 3-Substituted tetrahydro-naphthyridine derivatives” (Bioorg Med Chem Lett, 2004)
# Experiments:
# [1] = Bioavailability in dog; format: ADME, organism-based, Canis lupus familiaris; settings: in vivo
# Integrin alpha-V/beta-3 = Integrin alpha-V/beta-3 (Homo sapiens, UniProt P05106+P06756); assay: Displacement of [125I]L-775,219 from human recombinant alphaV-beta3 integrin; format: protein-complex assay
# [2] = Half-life of compound was determined in dogs; format: ADME, organism-based, Canis lupus familiaris; settings: dog, in vivo
# [3] = Clearance of compound was determined in dogs; format: ADME, organism-based, Canis lupus familiaris; settings: dog, in vivo
# [4] = Hammett constant was determined; format: functional
# Integrin alpha-V/beta-3, sequence (P05106 27-788 limits assumed): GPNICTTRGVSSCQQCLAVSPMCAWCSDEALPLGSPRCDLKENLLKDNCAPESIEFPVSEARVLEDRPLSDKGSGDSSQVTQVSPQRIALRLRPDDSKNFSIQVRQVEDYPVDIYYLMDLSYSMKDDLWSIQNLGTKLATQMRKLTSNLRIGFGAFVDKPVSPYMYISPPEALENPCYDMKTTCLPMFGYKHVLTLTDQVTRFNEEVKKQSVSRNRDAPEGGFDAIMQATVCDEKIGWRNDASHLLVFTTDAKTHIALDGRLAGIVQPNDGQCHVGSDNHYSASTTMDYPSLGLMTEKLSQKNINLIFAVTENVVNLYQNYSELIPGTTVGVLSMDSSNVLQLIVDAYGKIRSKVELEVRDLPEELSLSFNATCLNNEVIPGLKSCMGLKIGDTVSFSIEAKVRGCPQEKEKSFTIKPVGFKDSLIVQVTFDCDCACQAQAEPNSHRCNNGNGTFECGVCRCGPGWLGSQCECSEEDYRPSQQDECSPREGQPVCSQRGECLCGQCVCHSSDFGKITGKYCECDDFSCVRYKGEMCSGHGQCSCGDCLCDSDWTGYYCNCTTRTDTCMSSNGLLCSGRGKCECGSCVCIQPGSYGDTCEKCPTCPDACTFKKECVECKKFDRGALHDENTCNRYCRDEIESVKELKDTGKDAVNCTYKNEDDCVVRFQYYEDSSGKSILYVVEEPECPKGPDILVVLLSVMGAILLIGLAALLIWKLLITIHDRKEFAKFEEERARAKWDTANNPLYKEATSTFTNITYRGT
# Integrin alpha-V/beta-3, sequence (P06756 31-889 limits assumed): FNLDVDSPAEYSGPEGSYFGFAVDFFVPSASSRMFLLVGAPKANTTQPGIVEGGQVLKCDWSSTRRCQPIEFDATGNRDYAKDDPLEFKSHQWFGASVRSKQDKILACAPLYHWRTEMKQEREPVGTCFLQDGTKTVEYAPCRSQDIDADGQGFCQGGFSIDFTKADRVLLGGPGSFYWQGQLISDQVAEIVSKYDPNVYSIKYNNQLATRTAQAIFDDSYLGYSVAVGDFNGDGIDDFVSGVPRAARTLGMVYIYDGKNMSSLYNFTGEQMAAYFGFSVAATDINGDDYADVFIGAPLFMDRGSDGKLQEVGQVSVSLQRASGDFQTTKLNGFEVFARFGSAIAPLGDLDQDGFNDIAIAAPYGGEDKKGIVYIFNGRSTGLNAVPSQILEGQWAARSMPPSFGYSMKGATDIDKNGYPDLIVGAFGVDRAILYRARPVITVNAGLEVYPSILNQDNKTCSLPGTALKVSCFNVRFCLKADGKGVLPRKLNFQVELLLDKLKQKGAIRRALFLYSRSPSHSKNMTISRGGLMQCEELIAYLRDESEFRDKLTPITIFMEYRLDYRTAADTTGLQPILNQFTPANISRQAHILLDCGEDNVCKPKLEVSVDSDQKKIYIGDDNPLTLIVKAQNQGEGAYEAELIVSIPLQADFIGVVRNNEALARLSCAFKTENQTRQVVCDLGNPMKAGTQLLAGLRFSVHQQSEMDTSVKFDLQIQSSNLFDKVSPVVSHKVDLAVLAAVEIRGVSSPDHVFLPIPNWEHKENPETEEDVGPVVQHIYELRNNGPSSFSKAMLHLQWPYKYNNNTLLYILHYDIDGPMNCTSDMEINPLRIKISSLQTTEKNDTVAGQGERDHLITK
# Integrin alpha-V/beta-3, sequence (P06756 891-1048 limits assumed): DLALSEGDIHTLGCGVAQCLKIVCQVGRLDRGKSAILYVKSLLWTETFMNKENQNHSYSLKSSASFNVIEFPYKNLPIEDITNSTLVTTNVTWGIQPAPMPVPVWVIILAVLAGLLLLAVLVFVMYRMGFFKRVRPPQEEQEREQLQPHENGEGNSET
Compound,bioavailability [1],IC50 (Integrin alpha-V/beta-3),half-life [2],clearance [3],Sigmap [4]
COc1ccc([C@H](CC(=O)O)N(C)C(=O)CCCCc2nc3c(cc2C)CCCN3)cn1,65%,0.3 nM,4.9 h,2.4 mL/min/kg,-0.14
COc1ccc([C@H](CC(=O)O)N(C)C(=O)CCCCc2nc3c(cc2-c2ccccc2)CCCN3)cn1,,0.9 nM,,,0.05
COc1ccc([C@H](CC(=O)O)N(C)C(=O)CCCCc2nc3c(cc2[N+](=O)[O-])CCCN3)cn1,,36.7 nM,,,0.81
COc1ccc([C@H](CC(=O)O)N(C)C(=O)CCCCc2nc3c(cc2Br)CCCN3)cn1,,2.3 nM,,,0.26
COc1ccc([C@H](CC(=O)O)N(C)C(=O)CCCCc2nc3c(cc2N)CCCN3)cn1,,0.4 nM,,,-0.3
COc1ccc([C@H](CC(=O)O)N(C)C(=O)CCCCc2nc3c(cc2C#N)CCCN3)cn1,,16.5 nM,,,0.71
COc1ccc([C@H](CC(=O)O)N(C)C(=O)CCCCc2nc3c(cc2NC(C)=O)CCCN3)cn1,,0.6 nM,,,0
COc1ccc([C@H](CC(=O)O)N(C)C(=O)CCCCc2ccc3c(n2)NCCC3)cn1,76%,0.7 nM,5.8 h,,0
COc1ccc([C@H](CC(=O)O)N(C)C(=O)CCCCc2nc3c(cc2NS(C)(=O)=O)CCCN3)cn1,,0.9 nM,,,0.03
C=Cc1cc2c(nc1CCCCC(=O)N(C)[C@@H](CC(=O)O)c1ccc(OC)nc1)NCCC2,,0.3 nM,,,-0.14
